Measurements: patent US12187713B2, “Immunomodulators, compositions and methods thereof” (Betta Pharmaceuticals Co., Ltd, priority 2019, dated 2025)

biological target: PD-1/PD-L1 (Homo sapiens (Human), UniProt Q9NZQ7); test: PD-1/PD-L1 Binding Assay (Alphascreen); settings: numeric values
Outline: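 PD-1/PD-L1 binding detected by anti-6×His acceptor and streptavidin donor beads after 120 min in the dark at 25 °C. Beforehand, the two proteins were incubated 15 min at 25 °C with inhibitor at 0.015–300 nM (1% DMSO). IC50 comes from a log concentration–response curve.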

Chain of PD-1/PD-L1 (Q9NZQ7 19-238): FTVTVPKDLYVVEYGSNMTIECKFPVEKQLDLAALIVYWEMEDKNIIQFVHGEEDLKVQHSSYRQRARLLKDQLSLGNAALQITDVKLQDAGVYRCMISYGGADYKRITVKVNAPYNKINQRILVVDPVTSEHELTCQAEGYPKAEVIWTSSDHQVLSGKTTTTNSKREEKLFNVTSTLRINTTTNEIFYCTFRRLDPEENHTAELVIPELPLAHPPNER

Going from `Cc1c(-c2nc3cc(CN4CC(C)(O)C4)c(OC(F)F)cc3o2)cccc1-c1cccc(-c2nc3cc(CN4CCC[C@H]4C(=O)O)c(OC(F)F)cc3o2)c1C` [Example 44, ((6-(difluoromethoxy)-2-(3′-(6-(difluoromethoxy)-5-((3-hydroxy-3-methylazetidin-1-yl)methyl)benzo[d]oxazol-2-yl)-2,2′-dimethyl-[1,1′-biphenyl]-3-yl)benzo[d]oxazol-5-yl)methyl)-L-proline] to `Cc1c(-c2nc3cc(CN4CC(F)C4)c(OC(F)F)cc3o2)cccc1-c1cccc(-c2nc3cc(CN4CCC[C@H]4C(=O)O)c(OC(F)F)cc3o2)c1C` [Example 9, ((6-(difluoromethoxy)-2-(3′-(6-(difluoromethoxy)-5-((3-fluoroazetidin-1-yl)methyl)benzo[d]oxazol-2-yl)-2,2′-dimethyl-[1,1′-biphenyl]-3-yl)benzo[d]oxazol-5-yl)methyl)-L-proline], the IC50 rises from 1.1 nM to 18 nM (16-fold). The first is the more potent here.

Going from `Cc1c(Nc2nccc3cc(CN4CC(O)C4)cnc23)cccc1-c1cccc(-c2nc3cc(CN4CCC[C@H]4C(=O)O)c(OC(F)F)cc3o2)c1C` [Example 178, ((6-(difluoromethoxy)-2-(3′-((3-((3-hydroxyazetidin-1-yl)methyl)-1,7-naphthyridin-8-yl)amino)-2,2′-dimethyl-[1,1′-biphenyl]-3-yl)benzo[d]oxazol-5-yl)methyl)proline] to `Cc1c(-c2nc3cc(CN4CCC[C@H]4C(=O)O)c(OC(F)F)cc3o2)cccc1-c1cccc(-c2nc3cc(CN4CC(C)(CO)C4)cc(C#N)c3o2)c1C` [Example 129, ((2-(3′-(7-cyano-5-((3-(hydroxymethyl)-3-methylazetidin-1-yl)methyl)benzo[d]oxazol-2-yl)-2,2′-dimethyl-[1,1′-biphenyl]-3-yl)-6-(difluoromethoxy)benzo[d]oxazol-5-yl)methyl)-L-proline], the IC50 falls from 3.9 nM to 1.7 nM (2.3-fold).

Going from `Cc1c(COc2cc(OCc3cncc(OC(F)F)c3)c(CN3CC[C@@H](O)C3)cc2Cl)cccc1-c1cccc(-c2nc3cc(CN4CCC[C@H]4C(=O)O)c(OC(F)F)cc3o2)c1C` [Example 208, ((2-(3′-((2-chloro-5-((5-(difluoromethoxy)pyridin-3-yl)methoxy)-4-(((R)-3-hydroxypyrrolidin-1-yl)methyl)phenoxy)methyl)-2,2′-dimethyl-[1,1′-biphenyl]-3-yl)-6-(difluoromethoxy)benzo[d]oxazol-5-yl)methyl)-L-proline] to `Cc1c(-c2nc3cc(CNCCS(C)(=O)=O)c(OC(F)F)cc3o2)cccc1-c1cccc(-c2nc3cc(CN4CCC[C@H]4C(=O)O)c(OC(F)F)cc3o2)c1C` [Example 32, ((6-(difluoromethoxy)-2-(3′-(6-(difluoromethoxy)-5-(((2-(methylsulfonyl)ethyl)amino)methyl)benzo[d]oxazol-2-yl)-2,2′-dimethyl-[1,1′-biphenyl]-3-yl)benzo[d]oxazol-5-yl)methyl)-L-proline], the IC50 falls from 114 nM to 3.8 nM (30-fold). The second is the more potent here.

same assay, conditions: range symbols

`Cc1c(Nc2nccc3cc(CN4CCC(O)C4)cnc23)cccc1-c1cccc(-c2nc3cc(CN4CC[C@@H](C(=O)O)C4)c(OC(F)F)cc3o2)c1C` (stereo partly drawn) [Example 181, (3R)-1-((6-(difluoromethoxy)-2-(3′-((3-((3-hydroxypyrrolidin-1-yl)methyl)-1,7-naphthyridin-8-yl)amino)-2,2′-dimethyl-[1,1′-biphenyl]-3-yl)benzo[d]oxazol-5-yl)methyl)pyrrolidine-3-carboxylic acid] and `Cc1c(-c2nc3cc(CN4CC[C@H](C(=O)O)C4)c(OC(F)F)cc3o2)cccc1-c1cccc(-c2nc3cc(CN4CCC(C)C4)cc(C(F)(F)F)c3o2)c1C` (stereo partly drawn) [Example 92, (3S)-1-((6-(difluoromethoxy)-2-(2,2′-dimethyl-3′-(5-((3-methylpyrrolidin-1-yl)methyl)-7-(trifluoromethyl)benzo [d]oxazol-2-yl)-[1,1′-biphenyl]-3-yl)benzo[d]oxazol-5-yl)methyl)pyrrolidine-3-carboxylic acid] fall in the same range of IC50: 0.1 to 5 nM for the first, 0.1 to 5 nM for the second.

First: Cc1c(-c2nc3cc(CN4CC(=O)C4)c(OC(F)F)cc3o2)cccc1-c1cccc(-c2nc3cc(CN4CCC[C@H]4C(=O)O)c(OC(F)F)cc3o2)c1C [Example 46, ((6-(difluoromethoxy)-2-(3′-(6-(difluoromethoxy)-5-((3-oxoazetidin-1-yl)methyl)benzo[d]oxazol-2-yl)-2,2′-dimethyl-[1,1′-biphenyl]-3-yl)benzo[d]oxazol-5-yl)methyl)-L-proline]
Second: Cc1c(-c2nc3cc(CN4CC5(COC5)C4)c(OC(F)F)cc3o2)cccc1-c1cccc(-c2nc3cc(CN4CCC[C@H]4C(=O)O)c(OC(F)F)cc3o2)c1C [Example 47, ((2-(3′-(5-((2-oxa-6-azaspiro[3.3]heptan-6-yl)methyl)-6-(difluoromethoxy)benzo[d]oxazol-2-yl)-2,2′-dimethyl-[1,1′-biphenyl]-3-yl)-6-(difluoromethoxy)benzo[d]oxazol-5-yl)methyl)-L-proline]
The IC50 of the first is higher: 5 to 50 nM for the first, 0.1 to 5 nM for the second. The second is the more potent here.

Compared with `Cc1c(-c2nc3cc(CN4CC(C)(C)C4)ccc3o2)cccc1-c1cccc(-c2nc3cc(CN4CCC[C@H]4C(=O)O)c(OC(F)F)cc3o2)c1C` [Example 312, ((6-(difluoromethoxy)-2-(3′-(5-((3,3-dimethylazetidin-1-yl)methyl)benzo[d]oxazol-2-yl)-2,2′-dimethyl-[1,1′-biphenyl]-3-yl)benzo[d]oxazol-5-yl)methyl)-L-proline], `Cc1c(-c2nc3c(o2)CCN(Cc2cccnc2)C3)cccc1-c1cccc(-c2nc3cc(CN4CCC[C@H]4C(=O)O)c(OC(F)F)cc3o2)c1C` [Example 194, ((6-(difluoromethoxy)-2-(2,2′-dimethyl-3′-(5-(pyridin-3-ylmethyl)-4,5,6,7-tetrahydrooxazolo[4,5-c]pyridin-2-yl)-[1,1′-biphenyl]-3-yl)benzo[d]oxazol-5-yl)methyl)proline] is higher in IC50: 0.1 to 5 nM for the first, 5 to 50 nM for the second. The first is the more potent here.

First: Cc1c(-c2nc3cc(CN4CCC[C@H]4C(=O)O)c(OC(F)F)cc3o2)cccc1-c1cccc(-c2cnc(CN3CCCC3)cc2F)c1C [Example 262, ((6-(difluoromethoxy)-2-(3′-(4-fluoro-6-(pyrrolidin-1-ylmethyl)pyridin-3-yl)-2,2′-dimethyl-[1,1′-biphenyl]-3-yl)benzo[d]oxazol-5-yl)methyl)-L-proline]
Second: Cc1c(-c2nc3c(o2)CN(CCO)CC3)cccc1-c1cccc(-c2nc3cc(CN4CCC[C@H]4C(=O)O)c(OC(F)F)cc3o2)c1C [Example 189, ((6-(difluoromethoxy)-2-(3′-(5-(2-hydroxyethyl)-4,5,6,7-tetrahydrooxazolo[5,4-c]pyridin-2-yl)-2,2′-dimethyl-[1,1′-biphenyl]-3-yl)benzo[d]oxazol-5-yl)methyl)-L-proline]
The IC50 of the first is higher: 5 to 50 nM for the first, 0.1 to 5 nM for the second. The second is the more potent here.

`Cc1c(-c2nc3c(o2)CCN(CCS(C)(=O)=O)C3)cccc1-c1cccc(-c2nc3cc(CN4CCC[C@H]4C(=O)O)c(OC(F)F)cc3o2)c1C` [Example 185, ((6-(difluoromethoxy)-2-(2,2′-dimethyl-3′-(5-(2-(methylsulfonyl)ethyl)-4,5,6,7-tetrahydrooxazolo[4,5-c]pyridin-2-yl)-[1,1′-biphenyl]-3-yl)benzo[d]oxazol-5-yl)methyl)-L-proline] and `Cc1c(-c2nc3cc(CN4CC[C@@H](C(=O)O)C4)c(OC(F)F)cc3o2)cccc1-c1cccc(-c2nc3cc(CN4CCCC4)cc(C#N)c3o2)c1C` [Example 169, (R)-1-((2-(3′-(7-cyano-5-(pyrrolidin-1-ylmethyl)benzo[d]oxazol-2-yl)-2,2′-dimethyl-[1,1′-biphenyl]-3-yl)-6-(difluoromethoxy)benzo[d]oxazol-5-yl)methyl)pyrrolidine-3-carboxylic acid] fall in the same range of IC50: 0.1 to 5 nM for the first, 0.1 to 5 nM for the second.
